Holding throughout (assay): relative viability (nuclei count vs DMSO), 5 days (fraction); higher = more cells survive
Compound in assay [1]: CN1CCN(CC1)C2=CC(=C(C=C2)NC3=NC(=C(S3)C(=O)C4=C(C=CC=C4Cl)Cl)N)OC [XMD14-99] + CS(=O)(=O)CCNCc1ccc(-c2ccc3ncnc(Nc4ccc(OCc5cccc(F)c5)c(Cl)c4)c3c2)o1 [Lapatinib] (partner 2 µM)
The method in brief: (§1)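 Lung cancer cell lines in 1536-well plates got either a single drug or a fixed anchor-drug dose together with five library-drug doses (not always all listed) in √10 steps, by pin tool, on the day after seeding. Nuclei were counted after 5 days, and relative viability is the treated-to-vehicle ratio of nuclei counts. Values are medians of duplicate plates.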

Compound in assay [2]: N[C@@H]1CCCN(c2c(/C=C3\SC(=O)NC3=O)cccc2-c2ccccc2)C1 [AZD1208] + C[C@@H](Oc1cc(-c2cnn(C3CCNCC3)c2)cnc1N)c1c(Cl)ccc(F)c1Cl [Crizotinib] (partner 1 µM)
The procedure, abridged: as §1

Compound in assay [3]: N[C@@H]1CCCN(c2c(/C=C3\SC(=O)NC3=O)cccc2-c2ccccc2)C1 [AZD1208] + Nc1ncn([C@H]2C[C@H](O)[C@@H](CO)O2)c(=O)n1 [Decitabine] (partner 2 µM)
The procedure, abridged:
as §1

Compound in assay [4]: N[C@@H]1CCCN(c2c(/C=C3\SC(=O)NC3=O)cccc2-c2ccccc2)C1 [AZD1208] + O=C(c1cc(Cc2n[nH]c(=O)c3ccccc23)ccc1F)N1CCN(C(=O)C2CC2)CC1 [Olaparib] (partner 8 µM)
The method in brief:
as §1

In the case of H3255, the relative viability in assay [1] (first compound 0.08 µM) is 0.234; in assay [1] (first compound 0.8 µM) it was 0.252; in assay [1] (first compound 2.53 µM), 0.326; in assay [1] (first compound 8 µM) it was 0.164; in assay [2] (first compound 0.08 µM) it was 0.897; in assay [2] (first compound 0.253 µM), 0.854. The relative viability in assay [2] (first compound 0.8 µM) amounted to 0.916; in assay [2] (first compound 2.53 µM) it was 0.828; in assay [2] (first compound 8 µM), 0.774; in assay [3] (first compound 0.08 µM) it was 0.689; in assay [3] (first compound 0.253 µM), 0.714; in assay [3] (first compound 0.8 µM), 0.56. The relative viability was determined as 0.589 in assay [3] (first compound 2.53 µM); 0.523 in assay [3] (first compound 8 µM); 0.593 in assay [4] (first compound 0.08 µM); 0.611 in assay [4] (first compound 0.253 µM); 0.557 in assay [4] (first compound 0.8 µM); 0.597 in assay [4] (first compound 2.53 µM). Also, the relative viability in assay [4] (first compound 8 µM) was determined as 0.569.
HARA: the relative viability in assay [1] (first compound 0.08 µM) came to 0.701; in assay [1] (first compound 0.8 µM) it was 1.03; in assay [1] (first compound 2.53 µM) it was 0.647; in assay [1] (first compound 8 µM), 0.362; in assay [2] (first compound 0.08 µM) it was 0.938; in assay [2] (first compound 0.253 µM), 1.02. The relative viability in assay [2] (first compound 0.8 µM) came out at 1.02; in assay [2] (first compound 2.53 µM) it was 1.02; in assay [2] (first compound 8 µM), 0.943; in assay [3] (first compound 0.08 µM), 0.767; in assay [3] (first compound 0.253 µM), 0.578; in assay [3] (first compound 0.8 µM) it was 0.486. Besides, the relative viability in assay [3] (first compound 2.53 µM) worked out at 0.536; in assay [3] (first compound 8 µM), 0.545; in assay [4] (first compound 0.08 µM), 0.825; in assay [4] (first compound 0.253 µM), 0.471; in assay [4] (first compound 0.8 µM), 0.646; in assay [4] (first compound 2.53 µM), 0.743. Moreover, the relative viability in assay [4] (first compound 8 µM) worked out at 0.895.
As to HCC-15, the relative viability in assay [1] (first compound 0.08 µM) was determined as 0.867; in assay [1] (first compound 0.8 µM), 0.894; in assay [1] (first compound 2.53 µM), 0.792; in assay [1] (first compound 8 µM) it was 0.611; in assay [2] (first compound 0.08 µM) it was 0.849; in assay [2] (first compound 0.253 µM) it was 0.788. Besides, the relative viability was 0.707 in assay [2] (first compound 0.8 µM); 0.752 in assay [2] (first compound 2.53 µM); 0.641 in assay [2] (first compound 8 µM); 0.612 in assay [3] (first compound 0.08 µM); 0.624 in assay [3] (first compound 0.253 µM); 0.491 in assay [3] (first compound 0.8 µM). Further, the relative viability in assay [3] (first compound 2.53 µM) was 0.576; in assay [3] (first compound 8 µM) it was 0.575; in assay [4] (first compound 0.08 µM), 0.664; in assay [4] (first compound 0.253 µM), 0.718; in assay [4] (first compound 0.8 µM), 0.66; in assay [4] (first compound 2.53 µM), 0.636. In assay [4] (first compound 8 µM), the relative viability amounted to 0.613.
As for HCC-44, the relative viability in assay [1] (first compound 0.08 µM) is 1.12; in assay [1] (first compound 0.8 µM), 0.951; in assay [1] (first compound 2.53 µM), 1.09; in assay [1] (first compound 8 µM), 0.861; in assay [2] (first compound 0.08 µM), 0.828; in assay [2] (first compound 0.253 µM), 0.905. The relative viability was 0.788 in assay [2] (first compound 0.8 µM); 0.879 in assay [2] (first compound 2.53 µM); 0.82 in assay [2] (first compound 8 µM); 0.98 in assay [3] (first compound 0.08 µM); 0.907 in assay [3] (first compound 0.253 µM); 0.939 in assay [3] (first compound 0.8 µM). Besides, the relative viability in assay [3] (first compound 2.53 µM) was 0.995; in assay [3] (first compound 8 µM) it was 0.916; in assay [4] (first compound 0.08 µM), 0.989; in assay [4] (first compound 0.253 µM), 0.918; in assay [4] (first compound 0.8 µM) it was 0.999; in assay [4] (first compound 2.53 µM), 0.996. Besides, in assay [4] (first compound 8 µM), the relative viability turned out to be 0.919.
